Assay results published in patent US20250325534A1, “MICROBIOCIDAL TETRAHYDROISOQUINOLINE DERIVATIVES” (SYNGENTA CROP PROTECTION AG, priority 2021, published 2025).

Columns and labels:
Alternaria solani = Alternaria solani / tomato / leaf disc (early blight); type: in vivo; conditions: foliar, inoculated 2 days after application, vs untreated control
Botryotinia fuckeliana = Botryotinia fuckeliana (Botrytis cinerea) / liquid culture (gray mould); type: cell-based; conditions: 72 h, growth inhibition photometrically 3-4 days after application, read-out: control of Botryotinia fuckeliana
Procedure: Example B2: Botryotinia Fuckeliana (Botrytis cinerea)/Liquid Culture (Gray Mould) Conidia of the fungus from cryogenic storage are directly mixed into a nutrient broth (Vogels broth). After placing a DMSO solution of test compound into a microtiter plate (96-well format), the nutrient broth containing the fungal spores is added. The test plates are incubated at 24° C. and the inhibition of growth is determined photometrically 3-4 days after application.

Glomerella lagenarium = Glomerella lagenarium (Colletotrichum lagenarium) / liquid culture (anthracnose); type: cell-based; conditions: Colletotrichum orbiculare, 72 h, photometrically 3-4 days after application, read-out: control of Glomerella lagenarium
In short: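 Conidia in potato dextrose broth added to test compound delivered as DMSO solution in microtiter plates; incubation at 24° C. Growth inhibition read photometrically 3-4 days after application.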

[1] = test system: Blumeria graminis f. sp. tritici; test: Blumeria graminis f. sp. tritici / wheat / leaf disc preventative (powdery mildew); type: in vivo; conditions: foliar, inoculated 1 day after application
Procedure: Example B7: Blumeria graminis f. Sp. Tritici (Erysiphe graminis f. Sp. Tritici)/Wheat/Leaf Disc Preventative (Powdery Mildew on Wheat) Wheat leaf segments cv. Kanzler are placed on agar in a multiwell plate (24-well format) and sprayed with the formulated test compound diluted in water. The leaf disks are inoculated by shaking powdery mildew infected plants above the test plates 1 day after application. The inoculated leaf disks are incubated at 20° C. and 60% relative humidity under a light regime of 24 h darkness followed by 12 h light/12 h darkness in a climate chamber and the activity of a compound is assessed as percent disease control compared to untreated when an appropriate level of disease damage appears on untreated check leaf segments (6-8 days after application).

Phaeosphaeria nodorum = Phaeosphaeria nodorum (Septoria nodorum) / wheat / leaf disc preventative (glume blotch); type: in vivo; conditions: Parastagonospora nodorum, foliar, inoculated 2 days after application
Procedure: Example B9: Phaeosphaeria nodorum (Septoria nodorum)/Wheat/Leaf Disc Preventative (Glume Blotch) Wheat leaf segments cv. Kanzler are placed on agar in a multiwell plate (24-well format) and sprayed with the formulated test compound diluted in water. The leaf disks are inoculated with a spore suspension of the fungus 2 days after application. The inoculated test leaf disks are incubated at 20° C. and 75% relative humidity under a light regime of 12 h light/12 h darkness in a climate cabinet and the activity of a compound is assessed as percent disease control compared to untreated when an appropriate level of disease damage appears in untreated check leaf disks (5-7 days after application).

Monographella nivalis = Monographella nivalis (Microdochium nivale) / liquid culture (foot rot cereals); type: cell-based; conditions: 96 h, photometrically 4-5 days after application, read-out: control of Monographella nivalis
In short: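 Microdochium nivale conidia in potato dextrose broth were added to test compound in DMSO and incubated at 24° C. Growth inhibition was measured photometrically 4-5 days after application.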

Mycosphaerella arachidis = Mycosphaerella arachidis (Cercospora arachidicola) / liquid culture (early leaf spot); type: cell-based; conditions: 96 h, photometrically 4-5 days after application, read-out: control of Mycosphaerella arachidis
In short: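 Cryostored M. arachidis conidia in potato dextrose broth were added to compound applied as DMSO solution. Incubated at 24 °C; growth inhibition measured photometrically 4-5 days after application.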

Pyrenophora teres = Pyrenophora teres / barley / leaf disc preventative (net blotch); type: in vivo; conditions: foliar, inoculated 2 days after application
Procedure: Example B16: Pyrenophora teres/Barley/Leaf Disc Preventative (Net Blotch) Barley leaf segments cv. Hasso are placed on agar in a multiwell plate (24-well format) and sprayed with the formulated test compound diluted in water. The leaf segments are inoculated with a spore suspension of the fungus 2 days after application. The inoculated leaf segments are incubated at 20° C. and 65% relative humidity under a light regime of 12 h light/12 h darkness in a climate cabinet and the activity of a compound is assessed as disease control compared to untreated when an appropriate level of disease damage appears in untreated check leaf segments (5-7 days after application).

[2] = test system: Mycosphaerella graminicola; test: Mycosphaerella graminicola (Septoria tritici) / liquid culture (Septoria blotch); type: cell-based; conditions: Zymoseptoria tritici, 96 h, photometrically 4-5 days after application, read-out: control of Mycosphaerella graminicola
In short: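 Conidia from cryogenic storage mixed into potato dextrose broth, added to test compound in DMSO. Plates incubated at 24° C; growth inhibition read photometrically 4-5 days after application.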

Cn1cc(C2CN(C(=O)c3cc(-c4ccc(F)cc4F)no3)Cc3ccccc32)cn1 (stereo not shown) [Compound P-151, [3-(2,4-difluorophenyl)isoxazol-5-yl]-[4-(1-methylpyrazol-4-yl)-3,4-dihydro-1H-isoquinolin-2-yl]methanone]
≥ 80%: pest or weed control at 200 ppm (Alternaria solani) | inhibition of growth at 20 ppm (Botryotinia fuckeliana) | inhibition of growth at 20 ppm (Glomerella lagenarium) | pest or weed control at 200 ppm [1] | pest or weed control at 200 ppm (Phaeosphaeria nodorum) | inhibition of growth at 20 ppm (Monographella nivalis) | inhibition of growth at 20 ppm (Mycosphaerella arachidis) | pest or weed control at 200 ppm (Pyrenophora teres) | inhibition of growth at 20 ppm [2]

Cc1c(C2CN(C(=O)c3cc(-c4ccc(F)cc4)on3)Cc3ccccc32)cnn1C (stereo not shown) [Compound P-120, [4-(1,5-dimethylpyrazol-4-yl)-3,4-dihydro-1H-isoquinolin-2-yl]-[5-(4-fluorophenyl)isoxazol-3-yl]methanone]
≥ 80%: pest or weed control at 200 ppm (Alternaria solani) | inhibition of growth at 20 ppm (Botryotinia fuckeliana) | inhibition of growth at 20 ppm (Glomerella lagenarium) | pest or weed control at 200 ppm (Phaeosphaeria nodorum) | inhibition of growth at 20 ppm (Monographella nivalis) | inhibition of growth at 20 ppm (Mycosphaerella arachidis) | pest or weed control at 200 ppm (Pyrenophora teres) | inhibition of growth at 20 ppm [2]

Cc1ccc2c(c1)C(C)(c1cnn(C)c1)CN(C(=O)c1cc(-c3ccc(F)cc3F)on1)C2C (stereo not shown) [Compound P-216, [5-(2,4-difluorophenyl)isoxazol-3-yl]-[1,4,6-trimethyl-4-(1-methylpyrazol-4-yl)-1,3-dihydroisoquinolin-2-yl]methanone]
≥ 80%: inhibition of growth at 20 ppm (Botryotinia fuckeliana) | inhibition of growth at 20 ppm (Glomerella lagenarium) | inhibition of growth at 20 ppm (Monographella nivalis) | pest or weed control at 200 ppm (Pyrenophora teres) | inhibition of growth at 20 ppm [2]

Cc1c(C2CN(C(=O)c3cc(-c4ccccc4F)no3)Cc3ccccc32)cnn1C (stereo not shown) [Compound P-110, [4-(1,5-dimethylpyrazol-4-yl)-3,4-dihydro-1H-isoquinolin-2-yl]-[3-(2-fluorophenyl)isoxazol-5-yl]methanone]
≥ 80%: pest or weed control at 200 ppm (Alternaria solani) | inhibition of growth at 20 ppm (Botryotinia fuckeliana) | inhibition of growth at 20 ppm (Glomerella lagenarium) | pest or weed control at 200 ppm (Phaeosphaeria nodorum) | inhibition of growth at 20 ppm (Monographella nivalis) | inhibition of growth at 20 ppm (Mycosphaerella arachidis) | pest or weed control at 200 ppm (Pyrenophora teres) | inhibition of growth at 20 ppm [2]

Cc1nn(C)c(C)c1C1CN(C(=O)c2cc(-c3ccccc3F)on2)Cc2ccccc21 (stereo not shown) [Compound P-117, [5-(2-fluorophenyl)isoxazol-3-yl]-[4-(1,3,5-trimethylpyrazol-4-yl)-3,4-dihydro-1H-isoquinolin-2-yl]methanone]
≥ 80%: inhibition of growth at 20 ppm (Glomerella lagenarium) | pest or weed control at 200 ppm (Phaeosphaeria nodorum) | inhibition of growth at 20 ppm (Monographella nivalis) | inhibition of growth at 20 ppm (Mycosphaerella arachidis) | pest or weed control at 200 ppm (Pyrenophora teres) | inhibition of growth at 20 ppm [2]

COc1ccc2c(c1)CN(C(=O)c1cc(-c3ccc(F)cc3F)on1)CC2c1cnn(C)c1 (stereo not shown) [Compound P-51, [5-(2,4-difluorophenyl)isoxazol-3-yl]-[7-methoxy-4-(1-methylpyrazol-4-yl)-3,4-dihydro-1H-isoquinolin-2-yl]methanone]
≥ 80%: pest or weed control at 200 ppm (Alternaria solani) | inhibition of growth at 20 ppm (Glomerella lagenarium) | pest or weed control at 200 ppm (Phaeosphaeria nodorum) | inhibition of growth at 20 ppm (Monographella nivalis) | inhibition of growth at 20 ppm (Mycosphaerella arachidis) | pest or weed control at 200 ppm (Pyrenophora teres) | inhibition of growth at 20 ppm [2]

C[C@H]1c2ccccc2[C@@](C)(c2cnn(C)c2)CN1C(=O)c1cc(-c2ccccc2)on1 [Compound P-2, [(1S,4S)-1,4-dimethyl-4-(1-methylpyrazol-4-yl)-1,3-dihydroisoquinolin-2-yl]-(5-phenylisoxazol-3-yl)methanone]
≥ 80%: pest or weed control at 200 ppm (Alternaria solani) | pest or weed control at 200 ppm (Phaeosphaeria nodorum) | inhibition of growth at 20 ppm (Monographella nivalis) | inhibition of growth at 20 ppm (Mycosphaerella arachidis) | pest or weed control at 200 ppm (Pyrenophora teres) | inhibition of growth at 20 ppm [2]

Cn1cc(C2CN(C(=O)c3cc(-c4c(F)cc(F)cc4F)on3)Cc3ccccc32)cn1 (stereo not shown) [Compound P-136, [4-(1-methylpyrazol-4-yl)-3,4-dihydro-1H-isoquinolin-2-yl]-[5-(2,4,6-trifluorophenyl)isoxazol-3-yl]methanone]
≥ 80%: pest or weed control at 200 ppm (Alternaria solani) | pest or weed control at 200 ppm (Phaeosphaeria nodorum) | inhibition of growth at 20 ppm (Monographella nivalis) | pest or weed control at 200 ppm (Pyrenophora teres) | inhibition of growth at 20 ppm [2]

CC1c2ccccc2C(c2cnn(C)c2)CN1C(=O)c1cc(-c2ccc(F)cc2F)on1 (stereo not shown) [Compound P-141, [5-(2,4-difluorophenyl)isoxazol-3-yl]-[1-methyl-4-(1-methylpyrazol-4-yl)-3,4-dihydro-1H-isoquinolin-2-yl]methanone]
≥ 80%: pest or weed control at 200 ppm (Alternaria solani) | inhibition of growth at 20 ppm (Botryotinia fuckeliana) | inhibition of growth at 20 ppm (Glomerella lagenarium) | pest or weed control at 200 ppm [1] | pest or weed control at 200 ppm (Phaeosphaeria nodorum) | inhibition of growth at 20 ppm (Monographella nivalis) | inhibition of growth at 20 ppm (Mycosphaerella arachidis) | pest or weed control at 200 ppm (Pyrenophora teres) | inhibition of growth at 20 ppm [2]

Cn1ncc(C2CN(C(=O)c3cc(-c4ccc(F)cc4F)on3)Cc3ccccc32)c1Br (stereo not shown) [Compound P-45, [4-(5-bromo-1-methyl-pyrazol-4-yl)-3,4-dihydro-1H-isoquinolin-2-yl]-[5-(2,4-difluorophenyl)isoxazol-3-yl]methanone]
≥ 80%: pest or weed control at 200 ppm (Alternaria solani) | inhibition of growth at 20 ppm (Botryotinia fuckeliana) | inhibition of growth at 20 ppm (Glomerella lagenarium) | pest or weed control at 200 ppm (Phaeosphaeria nodorum) | inhibition of growth at 20 ppm (Monographella nivalis) | inhibition of growth at 20 ppm (Mycosphaerella arachidis) | pest or weed control at 200 ppm (Pyrenophora teres) | inhibition of growth at 20 ppm [2]

CC1c2ccccc2C(C)(c2cnn(C)c2F)CN1C(=O)c1cc(-c2ccc(F)cc2F)on1 (stereo not shown) [Compound P-11, [5-(2,4-difluorophenyl)isoxazol-3-yl]-[4-(5-fluoro-1-methyl-pyrazol-4-yl)-1,4-dimethyl-1,3-dihydroisoquinolin-2-yl]methanone]
≥ 80%: pest or weed control at 200 ppm (Alternaria solani) | inhibition of growth at 20 ppm (Botryotinia fuckeliana) | inhibition of growth at 20 ppm (Glomerella lagenarium) | pest or weed control at 200 ppm [1] | pest or weed control at 200 ppm (Phaeosphaeria nodorum) | inhibition of growth at 20 ppm (Monographella nivalis) | inhibition of growth at 20 ppm (Mycosphaerella arachidis) | inhibition of growth at 20 ppm [2]
